# Experimental data reported in patent US20160075689A1, “POLYMERASE, ENDONUCLEASE, AND HELICASE INHIBITORS AND METHODS OF USING THEREOF” (THE BOARD OF TRUSTEES OF THE UNIVERSITY OF ARKANSAS, priority 2013, published 2016).
# “And” between values parts separate entries of the source, which are not always exact repeats. Identical values can stand only once.
# Legend:
# NS3-4A = NS3-4A (Hepatitis C virus genotype 1b, UniProt P26663); test: NS3 protease activity assay; assay type: biochemical, HCV; details: 25 μM compound, 50 nM NS3-4A, 100 nM substrate
# Chain of NS3-4A (P26663 1027-1657): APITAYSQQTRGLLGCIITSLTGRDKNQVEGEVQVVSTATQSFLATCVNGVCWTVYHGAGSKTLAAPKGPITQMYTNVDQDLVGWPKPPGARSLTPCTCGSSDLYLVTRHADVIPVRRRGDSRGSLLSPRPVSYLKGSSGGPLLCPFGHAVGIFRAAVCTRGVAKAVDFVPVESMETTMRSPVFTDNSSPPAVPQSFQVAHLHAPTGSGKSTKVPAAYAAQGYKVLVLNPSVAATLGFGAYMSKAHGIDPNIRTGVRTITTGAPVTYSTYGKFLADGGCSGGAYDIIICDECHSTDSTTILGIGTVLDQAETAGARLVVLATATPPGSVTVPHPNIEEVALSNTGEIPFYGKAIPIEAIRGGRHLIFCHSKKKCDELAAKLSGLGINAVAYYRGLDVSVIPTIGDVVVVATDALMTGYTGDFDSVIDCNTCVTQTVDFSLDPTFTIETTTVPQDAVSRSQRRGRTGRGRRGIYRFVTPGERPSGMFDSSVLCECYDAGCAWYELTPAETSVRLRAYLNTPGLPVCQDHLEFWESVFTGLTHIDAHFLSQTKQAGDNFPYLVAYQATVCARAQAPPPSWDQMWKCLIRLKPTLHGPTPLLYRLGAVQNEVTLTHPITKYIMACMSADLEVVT
# Chain of NS3-4A (P26663 1658-1711): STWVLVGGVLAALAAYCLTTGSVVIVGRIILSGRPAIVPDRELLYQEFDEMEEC
# Experimental: The protease activity of NS3 was analyzed in the presence of 25 μM ITBA-3-79, ITBA-3-82 or ITBA-3-85 by using 50 nM NS3-4A and 100 nM substrate (Ac-Asp-Glu-Asp-EDANS-Glu-Glu-Abu-L-Lactoyl-Ser-Lys DABCYL-NH2). The emission spectra of EDANS and the absorption spectra of DABCYL overlap making the peptide internally quenched. Cleaving of the substrate by the protease results in an increase in fluorescence that can be measured (λex−355 nm; λem, −500 nm). Telapravir (10 μM) was used as a positive control.
# NS3 helicase = target: T1, NS3 helicase (Hepatitis C virus genotype 1b, UniProt P26663); test: Gel-based helicase assay; assay type: biochemical, HCV; details: standard helicase assay
# T1 construct: analyze the helicase activity of NS3 helicase in the presence of the compounds; made in house
# T1 sequence (P26663 1027-1657): as the sequence (P26663 1027-1657) above
# Experimental: Benchtop unwinding assays were performed to analyze the helicase activity of NS3 helicase in the presence of the compounds. The unwinding reaction was initiated by mixing the right (N53, compound, assay buffer) and left (radiolabeled substrate, ATP, assay buffer) reactions, which was then quenched. The ssDNA product formed over time is separated from dsDNA substrate by 20% native PAGE. The ratio of dsDNA substrate to ssDNA product is quantified using ImageQuant and the fraction of substrate unwound at each time-point is plotted as a function of time using Kaleidagraph software.
# HCV NS3 helicase = target: T2, HCV NS3 helicase (Hepatitis C virus genotype 1b, UniProt P26663); test: Fluorescence-based helicase assay; assay type: biochemical; details: IC50 for inhibition of NS3 helicase, mean ± standard deviation of three data sets
# T2 construct: analyze the helicase activity of NS3 helicase in the presence of the compounds; made in house
# T2 sequence (P26663 1027-1657): as above
# Experimental: A library of compounds was screened using a previously validated quantitative assay that measures helicase activity over time. The assay relies upon helicase-catalyzed displacement of a fluorescently-labeled oligonucleotide (FIG. 13A). The concentration of enzyme and compounds used was 250 nM and 20 μM respectively. The experiments were performed in triplicate. […] Three potential helicase inhibitors were identified using the fluorescence based assay. […] The inhibitor compounds identified in our screen were ITBA-3-79, ITBA-3-82 and ITBA-3-85 (FIG. 14A). […] The IC50 value for ITBA-3-79, ITBA-3-82 and ITBA-3-85-mediated inhibition of NS3 helicase ranged˜20 μM (FIG. 14C). The ATPase activity of NS3 (50 μM) was analyzed in the presence of ITBA-3-79, ITBA-3-82 and ITBA-3-85 using a coupled spectrophotometric assay (Raney and Benkovic 1995, (FIG. 15). The protease activity of NS3 was analyzed in the presence of ITBA-3-79, ITBA-3-82 and ITBA-3-85 by using 50 nM NS3-4A and 100 nM substrate (Ac-Asp-Glu-Asp-EDANS-Glu-Glu-Abu-L-Lactoyl-Ser-Lys DABCYL-NH2, FIG. 15. The NS3 helicase activity was analyzed in the presence of 25 μM ITBA-3-79, ITBA-3-82 and ITBA-3-85 (FIG. 16).
# A fluorescence based quantitative assay that measures helicase activity over time was employed to screen the compounds. The concentration of enzyme and compounds used was 250 nM and 20 μM respectively. Helicase catalyzes the unwinding of a FAM-labeled dsDNA and the resulting increase in fluorescence is plotted (λex-485 nm; λem, −528 nm). The slope of the initial part of the plot was used to calculate the percentage helicase activity. […] The IC50 value for ITBA-3-79, ITBA-3-82 and ITBA-3-85-mediated inhibition of NS3 helicase was determined using the same assay.
# protease = test: Protease activity in NRK-52E cell extract; assay type: biochemical; details: 0.1 μM and 10 μM
# Experimental: (§1) As a follow up to Example 8, the effects of the EndoG inhibitors PNR-3-80 and PNR-3-82, at 0.1 μM and 10 μM each, on the activities of four other enzymes including RNase A, protease, LDH, and SOD in NRK-52E cell extract were examined. NRK-52E cells were grown to ˜80% confluence in […]. The medium was aspirated and the cells were rinsed with ice cold 1×PBS, pH 7.4. The cells were lysed in 50 mM Tris-HCl, pH 7.4, 150 mM NaCl, 1% Triton X-100 for 10 min on ice and then briefly sonicated. Cell debris was removed by centrifugation at 13,000×g for 10 min at 4° C. The supernatant was collected and stored at −80° C. until use. LDH, Protease, Superoxide dismutase (SOD), and Ribonuclease A (RNase A) activities were measured by using CytoTox 96® Non-Radioactive Cytotoxicity Assay kit (Promega, Madison, Wis.), Protease Fluorescent Detection kit (Sigma-Aldrich, Saint Louis, Mo.), SOD determination kit (Sigma-Aldrich, Saint Louis, Mo.), and Ribonuclease A Detection kit (Sigma-Aldrich, Saint Louis, Mo.), respectively, according to the manufacturer's instructions.
# LDH = LDH activity in NRK-52E cell extract; assay type: biochemical; details: 0.1 μM and 10 μM
# Experimental: as §1
# RNase A = test: Ribonuclease A activity in NRK-52E cell extract; assay type: biochemical; details: 0.1 μM and 10 μM
# Experimental: as §1
# SOD = SOD activity in NRK-52E cell extract; assay type: biochemical; details: 0.1 μM and 10 μM
# Experimental: as §1
# 22Rv1 cells = test: Cytoprotection against Cisplatin-induced cell death, LDH release assay; assay type: cell-based, human; details: Cisplatin 60 μM, inhibitor 50 μM
# Experimental: To test cytotoxic activities of the inhibitors, human prostrate carcinoma epithelial 22Rv1 cells, which naturally express EndoG, were exposed to Cisplatin (60 μM) in the presence or absence of PNR-3-80 (50 μM) and cell death was measured by the LDH release assay.
# EndoG [1] = target: T3, EndoG (Homo sapiens, UniProt Q14249); test: High-throughput EndoG screening assay; assay type: biochemical
# T3 sequence (Q14249 49-297): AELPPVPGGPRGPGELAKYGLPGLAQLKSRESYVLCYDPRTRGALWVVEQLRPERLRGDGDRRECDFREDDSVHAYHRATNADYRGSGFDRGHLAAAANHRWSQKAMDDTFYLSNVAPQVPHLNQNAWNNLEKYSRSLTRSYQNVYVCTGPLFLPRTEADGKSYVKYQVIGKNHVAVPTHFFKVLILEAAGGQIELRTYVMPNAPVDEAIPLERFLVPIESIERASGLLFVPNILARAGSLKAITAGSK
# Experimental: (§2) A reaction mixture was prepared in each well of a white 96-well plate (Costar, Corning, N.Y.) as follows: 0.25 μM Cy5.5-labeled oligonucleotide (described in US provisional patent filed Oct. 19, 2012, Ser. No. 61/716,097) 0.3 mM MgCl2, 10 mM Tris-HCl, pH 7.4, 1 μl DMSO containing 5 or 50 ng of test compound, and nuclease-free water for a total reaction volume of 100 μl. The background (negative control) and uninhibited EndoG samples were measured using DMSO only, or DMSO containing recombinant EndoG (4 μg/ml), respectively. After addition of EndoG, fluorescence intensity was kinetically measured on a Bio-Tek Synergy 4.0 plate reader at 37° C. and mean velocity (mRFU/min) within 20 min was automatically calculated by the plate reader. The background was subtracted prior to the calculation of EndoG activity (%). The percent of EndoG activity was calculated from the mean velocity of a compound divided by the mean velocity of DMSO with recombinant EndoG, and the obtained value multiplied by 100.
# EndoG [2] = target: T3, EndoG; test: Plasmid incision assay; assay type: biochemical; details: agarose gel, FIG. 9
# Experimental: A reaction mixture was prepared containing 0.5 μg pECFP plasmid DNA, 2 mM CaCl2, 5 mM MgCl2, 10 mM Tris-HCl, pH 7.4, 0.5 mM dithiothreitol. The test compound [50 ng in DMSO (1 μl)] was added. Recombinant EndoG was then added to the final concentration of 200 ng/ml and the reaction was incubated for 1 h at 37° C. The reaction was terminated by adding 2 μl of 10 mM Tris-HCl, pH 7.4, 1% SDS, 25 mM EDTA, 7.2 mM bromophenol blue. The samples were run in 1% agarose gel in Tris-acetate-EDTA buffer (40 mM Tris, 20 mM acetic acid, 1 mM EDTA, pH 8), at 7 V/cm for 35 min, and DNA was stained with ethidium bromide. An EagleEye scanning densitometer (Stratagene, La Jolla, Calif.) was utilized to quantify the relative amount of endonuclease-treated plasmid DNA present in a covalently-closed circular (supercoiled) DNA, open circular DNA, or linear DNA, or in a digested form.
# DNase II = target: T4, DNase II (Homo sapiens, UniProt O00115); test: Endonuclease screening assay, specificity; assay type: biochemical
# T4 sequence (O00115 19-360): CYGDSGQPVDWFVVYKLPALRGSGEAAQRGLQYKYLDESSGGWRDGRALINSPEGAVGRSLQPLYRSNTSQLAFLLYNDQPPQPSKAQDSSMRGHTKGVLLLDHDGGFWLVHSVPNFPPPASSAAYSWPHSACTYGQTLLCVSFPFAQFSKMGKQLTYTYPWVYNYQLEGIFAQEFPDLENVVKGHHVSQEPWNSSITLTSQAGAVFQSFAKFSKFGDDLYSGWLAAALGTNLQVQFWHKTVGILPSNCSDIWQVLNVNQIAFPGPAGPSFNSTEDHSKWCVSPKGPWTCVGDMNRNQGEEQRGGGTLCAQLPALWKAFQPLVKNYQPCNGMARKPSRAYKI
# Description: (§3) Specificity of a potential inhibitor is important for any in vitro or in vivo application, and generally defines the usefulness of an inhibitor. To determine specificity of the inhibitors for the two EndoG inhibitors, PNR-3-80 and PNR-3-82, their IC50 values for EndoG were compared using the screening assay with the IC50 values for two other endonucleases, DNase I and DNAse II (FIG. 11). These endonucleases were chosen because they represent the majority of endonuclease activity in most mammalian cells and because of their availability as pure enzymes.
# as §2
# DNase I = target: T5, DNase I (Homo sapiens, UniProt P24855); test: Endonuclease screening assay, specificity; assay type: biochemical
# T5 sequence (P24855 23-282): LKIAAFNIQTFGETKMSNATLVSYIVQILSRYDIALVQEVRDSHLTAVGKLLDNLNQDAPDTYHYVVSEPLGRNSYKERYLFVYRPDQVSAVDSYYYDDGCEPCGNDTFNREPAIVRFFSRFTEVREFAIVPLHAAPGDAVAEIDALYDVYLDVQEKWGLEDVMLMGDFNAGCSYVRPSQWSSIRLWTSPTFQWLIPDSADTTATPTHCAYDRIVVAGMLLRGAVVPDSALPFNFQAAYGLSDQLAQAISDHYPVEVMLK
# Description: as §3, §2
# [3] = tested on: EndoG-expressing PC3 cells; test: Cytoprotection against Docetaxel-induced cell death, LDH release and TUNEL assays; assay type: cell-based, human; details: Docetaxel 80 μM, inhibitor 50 μM
# Experimental: Docetaxel is an anti-cancer drug used to treat prostate cancer. Human invasive prostate cancer PC3 cells are known to be resistant to anticancer drugs. […] The resulting EndoG-expressing PC3 cells were exposed with Docetaxel (80 μM) in the absence or presence of the inhibitors, PNR-3-80 or PNR-3-82 (50 μM each). The cell death was measured by using two methods, LDH release assay and TUNEL assay. […]
Compound,NS3 protease activity (NS3-4A),"NS3 helicase activity, gel electrophoresis (NS3 helicase)",IC50 (HCV NS3 helicase),protease activity (protease),LDH activity (LDH),RNase A activity (RNase A),SOD activity (SOD),inhibition of Cisplatin-induced cell death (22Rv1 cells),inhibition of Cisplatin-induced cell death (22Rv1 cells; listed as P-NR-30),"remaining activity at 1 µM (EndoG [1]; 20 min, compound 1 μM, read-out: % EndoG activity in the presence of the compound)","IC50 (EndoG [1]; IC50 against EndoG, EndoG screening assay)",protection of supercoiled plasmid DNA from degradation by EndoG (EndoG [2]),effect on DNase II activity (DNase II),IC50 (DNase I),cytoprotection against Docetaxel-induced cell death [3]
O=C1NC(=S)NC(=O)C1=Cc1cn(C(=O)c2ccc3ccccc3c2)c2ccccc12 [ITBA-3-79],do not block protease activity,confirmed the inhibition,~20 µM and 21.6 µM,,,,,,,,,,,,
COc1ccc2c(c1)c(C=C1C(=O)NC(=S)NC1=O)cn2C(=O)c1cccc2ccccc12 [ITBA-3-85],do not block protease activity,confirmed the inhibition,~20 µM and 23.5 µM,,,,,,,,,,,,
O=C1NC(=S)NC(=O)C1=Cc1cn(C(=O)c2ccc3ccccc3c2)c2ccc(Cl)cc12 [PNR-3-80],,,,none of the two tested compounds had any inhibiting activity,none of the two tested compounds had any inhibiting activity,none of the two tested compounds had any inhibiting activity,none of the two tested compounds had any inhibiting activity,significant and complete inhibition,complete inhibition,36%,0.671 µM and 0.67 µM,significantly protected the plasmid DNA from degradation,did not have any effect,11.2 µM,cytoprotective
